Source: paper PMC7916272, “Colorimetric LPMO assay with direct implication for cellulolytic activity” (Biotechnology for Biofuels, 2021)

Experiments:
Assay in all cases: absorbance of PHP at […] nm
Format in all cases: biochemical
CotA = biological target: T1, CotA (Bacillus subtilis, UniProt H8WGE7); conditions: […] enzyme, with or without DHA, […] °C, […] min
T1 construct: recombinant from Escherichia coli, purified to homogeneity
T1 sequence (H8WGE7 1-513): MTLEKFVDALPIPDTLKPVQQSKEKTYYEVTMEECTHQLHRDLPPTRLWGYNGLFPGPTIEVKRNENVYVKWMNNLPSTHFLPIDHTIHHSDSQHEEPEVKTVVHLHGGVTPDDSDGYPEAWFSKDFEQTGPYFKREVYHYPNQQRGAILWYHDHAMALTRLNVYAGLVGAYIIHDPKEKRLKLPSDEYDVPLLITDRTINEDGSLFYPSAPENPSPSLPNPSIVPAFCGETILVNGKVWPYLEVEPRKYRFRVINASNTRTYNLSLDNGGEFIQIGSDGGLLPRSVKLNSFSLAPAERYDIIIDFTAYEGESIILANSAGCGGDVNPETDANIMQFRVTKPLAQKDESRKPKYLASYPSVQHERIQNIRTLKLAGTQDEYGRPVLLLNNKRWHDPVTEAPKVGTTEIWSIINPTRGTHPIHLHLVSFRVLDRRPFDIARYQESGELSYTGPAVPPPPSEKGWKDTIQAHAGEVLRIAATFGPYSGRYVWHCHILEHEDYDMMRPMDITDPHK

TtAA9 = biological target: T2, TtAA9 (Thermothielavioides terrestris, UniProt D0VWZ9); conditions: 1 µM Cu-loaded enzyme, with or without DHA, 40 °C, 30 min
T2 construct: gene gh61e; gift from Novozymes, purified to homogeneity, loaded with CuCl2
T2 sequence (D0VWZ9 entry or part of it): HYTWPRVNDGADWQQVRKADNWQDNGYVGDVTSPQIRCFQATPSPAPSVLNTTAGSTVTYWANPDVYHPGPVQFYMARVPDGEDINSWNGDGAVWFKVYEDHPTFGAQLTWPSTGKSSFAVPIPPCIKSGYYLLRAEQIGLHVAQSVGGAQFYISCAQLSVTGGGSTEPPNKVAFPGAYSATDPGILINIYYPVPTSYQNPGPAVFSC

LsAA9A = biological target: T3, LsAA9A (Panus similis, UniProt A0A0S2GKZ1); conditions: 1 µM Cu-loaded enzyme, with or without DHA, 40 °C, 30 min
T3 construct: gene LPMO9A; gift from Novozymes, purified to homogeneity, loaded with CuCl2
T3 sequence (A0A0S2GKZ1 20-254): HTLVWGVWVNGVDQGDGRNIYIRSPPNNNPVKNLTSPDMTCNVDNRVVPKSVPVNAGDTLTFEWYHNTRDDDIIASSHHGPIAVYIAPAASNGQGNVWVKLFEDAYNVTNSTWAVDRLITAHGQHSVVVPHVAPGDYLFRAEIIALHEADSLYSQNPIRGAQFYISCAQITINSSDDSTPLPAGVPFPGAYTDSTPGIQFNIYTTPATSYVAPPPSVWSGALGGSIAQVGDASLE

SmAA10 = biological target: T4, SmAA10 (Serratia marcescens, UniProt P9WEM3); conditions: 1 µM Cu-loaded enzyme, with or without DHA, 40 °C, 30 min
T4 construct: gene CBP21; expressed using LyGo platform, purified to homogeneity, loaded with CuCl2
T4 sequence (P9WEM3 28-197): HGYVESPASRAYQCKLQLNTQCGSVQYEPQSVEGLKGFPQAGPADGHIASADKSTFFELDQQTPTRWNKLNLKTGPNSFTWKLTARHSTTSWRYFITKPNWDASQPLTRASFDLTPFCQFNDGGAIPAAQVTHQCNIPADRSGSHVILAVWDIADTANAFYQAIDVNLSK

TfAA10A = biological target: T5, TfAA10A (Thermobifida fusca, UniProt Q47QG3); conditions: 1 µM Cu-loaded enzyme, with or without DHA, 40 °C, 30 min
T5 construct: gene Tfu_1268; expressed using LyGo platform, purified to homogeneity, loaded with CuCl2
T5 sequence (Q47QG3 37-222): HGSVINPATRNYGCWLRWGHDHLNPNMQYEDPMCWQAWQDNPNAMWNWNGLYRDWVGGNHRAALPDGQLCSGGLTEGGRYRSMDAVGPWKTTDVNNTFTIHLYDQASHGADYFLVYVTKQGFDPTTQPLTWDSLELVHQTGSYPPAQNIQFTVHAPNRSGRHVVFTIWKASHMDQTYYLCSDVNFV

MtL = biological target: T6, MtL (Thermothelomyces thermophilus, UniProt G2QFD0); conditions: 1 µM enzyme, with or without DHA, 40 °C, 30 min
T6 construct: gene LMCO1; gift from Novozymes, purified to homogeneity
T6 sequence (G2QFD0 21-650): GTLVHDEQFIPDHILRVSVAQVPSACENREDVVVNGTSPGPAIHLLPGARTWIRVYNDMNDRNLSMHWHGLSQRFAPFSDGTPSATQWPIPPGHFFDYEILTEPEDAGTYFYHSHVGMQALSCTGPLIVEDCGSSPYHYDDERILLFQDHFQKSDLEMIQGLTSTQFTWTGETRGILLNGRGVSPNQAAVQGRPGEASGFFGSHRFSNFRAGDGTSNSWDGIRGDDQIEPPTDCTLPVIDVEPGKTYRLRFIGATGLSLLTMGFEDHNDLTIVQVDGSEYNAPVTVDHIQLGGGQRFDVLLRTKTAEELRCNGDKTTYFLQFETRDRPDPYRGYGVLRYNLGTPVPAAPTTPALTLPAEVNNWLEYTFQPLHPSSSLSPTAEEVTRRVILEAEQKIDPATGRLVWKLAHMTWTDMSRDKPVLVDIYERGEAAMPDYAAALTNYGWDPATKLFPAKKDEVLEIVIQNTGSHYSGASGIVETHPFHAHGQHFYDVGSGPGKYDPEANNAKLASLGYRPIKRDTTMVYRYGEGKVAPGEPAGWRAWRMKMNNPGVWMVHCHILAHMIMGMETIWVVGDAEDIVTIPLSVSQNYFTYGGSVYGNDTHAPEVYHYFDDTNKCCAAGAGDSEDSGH

AnAA13 = biological target: T7, AnAA13 (Aspergillus nidulans, UniProt Q5B1W7); conditions: 1 µM Cu-loaded enzyme, with or without DHA, 40 °C, 30 min
T7 construct: gene aasA; gift from Novozymes, purified to homogeneity, loaded with CuCl2
T7 sequence (Q5B1W7 19-385): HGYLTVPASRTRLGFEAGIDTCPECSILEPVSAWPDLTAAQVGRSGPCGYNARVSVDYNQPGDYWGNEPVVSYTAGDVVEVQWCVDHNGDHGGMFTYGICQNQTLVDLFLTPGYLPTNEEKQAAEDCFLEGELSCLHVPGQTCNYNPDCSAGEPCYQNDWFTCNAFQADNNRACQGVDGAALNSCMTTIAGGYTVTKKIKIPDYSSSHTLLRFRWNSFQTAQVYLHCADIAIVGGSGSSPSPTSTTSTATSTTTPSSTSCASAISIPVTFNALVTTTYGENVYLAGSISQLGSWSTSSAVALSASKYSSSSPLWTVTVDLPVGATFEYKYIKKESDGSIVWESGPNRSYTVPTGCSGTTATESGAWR

O=C(O)c1ccccc1C(c1ccc(O)cc1)c1ccc(O)cc1 [rPHP, reduced phenolphthalein]
absorbance of PHP at 552 nm (CotA): did oxidise rPHP; however, the rPHP oxidising activity of these enzymes was not enhanced | absorbance of PHP at 552 nm (TtAA9): All LPMOs tested oxidise rPHP in a DHA dependent reaction | absorbance of PHP at 552 nm (LsAA9A): All LPMOs tested oxidise rPHP in a DHA dependent reaction | absorbance of PHP at 552 nm (SmAA10): All LPMOs tested oxidise rPHP in a DHA dependent reaction | absorbance of PHP at 552 nm (TfAA10A): All LPMOs tested oxidise rPHP in a DHA dependent reaction | absorbance of PHP at 552 nm (MtL): did oxidise rPHP; however, the rPHP oxidising activity of these enzymes was not enhanced | absorbance of PHP at 552 nm (AnAA13): AnAA13 stands out with a relatively large rPHP oxidation without DHA
